Reference: the RepoRT retention time repository

Experiment: HILIC, HILICON iHILIC-(P) Classic, HILIC, PEEK, 50 × 2.1 mm, 5 µm, 30 °C, 0.12 mL/min, estimated dead time 0.92 min; A: water + 20 mM ammonium carbonate; B: acetonitrile; gradient (min/%B) 0/80 1/80 21/20 21.5/20 26.5/20 27.5/80 35/80
Conditions: stereoisomer not certain

Structure (SMILES) | LC retention time [min]
CC(=O)NC(CC(=O)O)C(=O)O (configuration not stated) [N-Acetylaspartic acid] | 9.49
NC(=O)c1ccc[n+](C2OC(COP(=O)(O)OP(=O)(O)OCC3OC(n4cnc5c(N)ncnc54)C(OP(=O)(O)O)C3O)C(O)C2O)c1 (configuration not stated) [NADP] | 13.4
O=C(O)CC(=O)O [Malonic Acid] | 9.63
CC(O)C(=O)O (configuration not stated) [Lactic Acid] | 3.22
O=C(CO)COP(=O)(O)O [Triose phosphate] | 11.5
O=c1ccn(C2OC(COP(=O)(O)OP(=O)(O)O)C(O)C2O)c(=O)[nH]1 (configuration not stated) [UDP] | 12.3
O=C1OC(C(O)CO)C(O)=C1O (configuration not stated) [Ascorbic Acid] | 9.51
Nc1ccn(C2OC(COP(=O)(O)OP(=O)(O)O)C(O)C2O)c(=O)n1 (configuration not stated) [CDP] | 13.2
Nc1ncnc2c1ncn2C1OC(COP(=O)(O)OP(=O)(O)OP(=O)(O)O)C(O)C1O (configuration not stated) [ATP] | 13.9
NC(=O)C1=CN(C2OC(COP(=O)(O)OP(=O)(O)OCC3OC(n4cnc5c(N)ncnc54)C(OP(=O)(O)O)C3O)C(O)C2O)C=CC1 (configuration not stated) [NADPH] | 16.3
NC(Cc1ccc(O)cc1)C(=O)O (configuration not stated) [Tyrosine] | 8.15
O=P(O)(O)OCC(O)CO (configuration not stated) [Glycerol-3-phosphate] | 10.9
O=C(O)CC(O)C(=O)O (configuration not stated) [Malic Acid] | 13
NC(Cc1c[nH]c2ccccc12)C(=O)O (configuration not stated) [Tryptophan] | 6.31
O=c1ccn(C2OC(COP(=O)(O)O)C(O)C2O)c(=O)[nH]1 (configuration not stated) [UMP] | 9.59
O=C(O)CC(C(=O)O)C(O)C(=O)O (configuration not stated) [Isocitric acid] | 15.8
Nc1ncnc2c1ncn2C1OC(CO)C(O)C1O (configuration not stated) [Adenosine] | 3.76
CC(=O)SCCNC(=O)CCNC(=O)C(O)C(C)(C)COP(=O)(O)OP(=O)(O)OCC1OC(n2cnc3c(N)ncnc32)C(O)C1OP(=O)(O)O (configuration not stated) [Acetyl-CoA] | 8.59
CCC(C)C(N)C(=O)O (configuration not stated) [Isoleucine] | 6.75

Structure (SMILES) | LC retention time [min]
NC(CCC(=O)NC(CSSCC(NC(=O)CCC(N)C(=O)O)C(=O)NCC(=O)O)C(=O)NCC(=O)O)C(=O)O (configuration not stated) [GSSG] | 15.6
Nc1ncnc2nc[nH]c12 [Adenine] | 3.84
NC(=O)CC(N)C(=O)O (configuration not stated) [Asparagine] | 11.1
NC(CCC(=O)O)C(=O)O (configuration not stated) [Glutamic acid] | 10.2
NC(=O)CCC(N)C(=O)O (configuration not stated) [Glutamine] | 8.86
CC(C)CC(N)C(=O)O (configuration not stated) [Leucine] | 5.63
O=C(O)CCC(=O)O [Succinic Acid] | 12.1
NC(=O)c1ccc[n+](C2OC(COP(=O)(O)OP(=O)(O)OCC3OC(n4cnc5c(N)ncnc54)C(O)C3O)C(O)C2O)c1 (configuration not stated) [NAD] | 9.43
NCCCCC(N)C(=O)O (configuration not stated) [Lysine] | 18.4
Cc1ncc(C[n+]2csc(CCO)c2C)c(N)n1 [Thiamine] | 12.7
Nc1ncnc2c1ncn2C1OC(COP(=O)(O)O)C(O)C1O (configuration not stated) [AMP] | 8.62
O=C(O)C1(O)CC(O)C(O)C(O)C1 (configuration not stated) [Quinic Acid] | 6.75
Nc1nc2c(ncn2C2OC(CO)C(O)C2O)c(=O)[nH]1 (configuration not stated) [Guanosine] | 7.27
O=C(O)C1CCCN1 (configuration not stated) [Proline] | 7.48
C=C(OP(=O)(O)O)C(=O)O [PEP] | 13.6
Nc1nc2ncc(CNc3ccc(C(=O)NC(CCC(=O)O)C(=O)O)cc3)nc2c(=O)[nH]1 (configuration not stated) [Folic Acid] | 14.4
O=C(O)c1cccnc1 [Nicotinic acid] | 2.1
Nc1ccn(C2OC(COP(=O)(O)O)C(O)C2O)c(=O)n1 (configuration not stated) [CMP] | 10.8
CC(O)C(N)C(=O)O (configuration not stated) [Threonine] | 8.47

Structure (SMILES) | LC retention time [min]
NC(=O)c1ccc[n+](C2OC(COP(=O)([O-])O)C(O)C2O)c1 (configuration not stated) [NMN] | 9.99
Nc1ccn(C2OC(CO)C(O)C2O)c(=O)n1 (configuration not stated) [Cytidine] | 6.28
O=C(O)CC(O)(CC(=O)O)C(=O)O [Citric acid] | 16.5
Nc1nc2c(ncn2C2OC(COP(=O)(O)OP(=O)(O)O)C(O)C2O)c(=O)[nH]1 (configuration not stated) [GDP] | 14.8
O=c1ccn(C2OC(COP(=O)(O)OP(=O)(O)OP(=O)(O)O)C(O)C2O)c(=O)[nH]1 (configuration not stated) [UTP] | 14.1
CC(=O)NC1C(OP(=O)(O)OP(=O)(O)OCC2OC(n3ccc(=O)[nH]c3=O)C(O)C2O)OC(CO)C(O)C1O (configuration not stated) [UDP-GlcNAc] | 11.9
CSCCC(N)C(=O)O (configuration not stated) [Methionine] | 6.99
NC(CSSCC(N)C(=O)O)C(=O)O (configuration not stated) [Cystine] | 11.8
NC(=O)C1=CN(C2OC(COP(=O)(O)OP(=O)(O)OCC3OC(n4cnc5c(N)ncnc54)C(O)C3O)C(O)C2O)C=CC1 (configuration not stated) [NADH] | 9.95
O=C(O)C(CO)OP(=O)(O)O (configuration not stated) [Phosphoglyceric acid A] | 13.6
NCCCC(N)C(=O)O (configuration not stated) [Ornithine] | 17.7
Nc1nc2c(ncn2C2OC(COP(=O)(O)O)C(O)C2O)c(=O)[nH]1 (configuration not stated) [GMP] | 13.9
NC(Cc1ccccc1)C(=O)O (configuration not stated) [Phenylalanine] | 5.37
Nc1nc2c(ncn2C2OC(COP(=O)(O)OP(=O)(O)OP(=O)(O)O)C(O)C2O)c(=O)[nH]1 (configuration not stated) [GTP] | 16.9
Nc1ncnc2c1ncn2C1OC(COP(=O)(O)OP(=O)(O)O)C(O)C1O (configuration not stated) [ADP] | 12.5
NC(CCC(=O)NC(CS)C(=O)NCC(=O)O)C(=O)O (configuration not stated) [GSH] | 8.95
NC(CO)C(=O)O (configuration not stated) [Serine] | 9.56
O=C(O)CCCCC1SCC2NC(=O)NC21 (configuration not stated) [Biotin] | 3.76
CC(C)C(N)C(=O)O (configuration not stated) [Valine] | 6.97
